Data taken from patent US20260207605A1, “KRAS G12D INHIBITORS AND USES THEREOF” (Abbisko Therapeutics Co., Ltd., priority 2022, published 2026).

What was measured:
[1] = Pharmacokinetic experiment in mice (single PO or IV administration); details: male, ICR, mouse, plasma
Text: (§7) The purpose of this trial is to study the pharmacokinetic behavior of some compounds of the present invention, and the administration method is: single oral administration (PO) or intravenous administration (IV) to ICR mice.
(§8) ICR mice male N=9 original source: Shanghai Sippr-Bk Lab Animal Co., Ltd.
(§9) The compounds were weighed and dissolved in the corresponding solution (0.5% CMC+1% tween water solution or 10% PG+10% Solutol®+80% pH3 citrate buffer). The mixture was then shaken well and sonicated to prepare a 1 mg/mL stock solution. Nine mice were orally administered at a dose of 10 mg/kg or intravenously administered at a dose of 2 mg/kg after an overnight fast.
(§10) About 90 μL of blood was collected via the submandibular vein per time point, heparin sodium anticoagulant was added, the sample was placed on ice after collection, and plasma was centrifuged within 1 hour (centrifugation conditions: 8,000 rpm, 6 minutes, 2-8° C.). The blood collection timepoints were 0, 0.25, 0.5, 1, 2, 4, 6, 8 and 24 h. The samples were stored in a −20° C. refrigerator.
(§11) The plasma sample was 40 μL, 160 μL of ice-cold acetonitrile containing internal standard was added, vortexed for 3 minutes, and centrifuged at 11,000 rpm for 5 minutes. 100 μL of the supernatant was taken and added to 100 μL of water, 5 μL of the sample was taken and injected into LC/MS/MS for analysis.

[2] = target: KRAS^G12D/cRAF (Homo sapiens, UniProt P01116, G12D); assay: KRAS G12D/cRAF binding test (Alphalisa); details: His-tagged KRAS G12D with GMPPNP, GST-tagged cRAF
[3] = test system: HPAC; assay: Anti-proliferative 2D CTG assay, HPAC; type: cell-based; details: Homo sapiens, 96 h, HPAC cells, 4 days incubation, read-out: HPAC cell IC50
Procedure: (§1) 1.1 Day 0 Cell Culture and Plating
(§2) Cells in a logarithmic growth phase were harvested and the cells were counted by using a […]. Cell viability was tested by using a trypan blue exclusion method to ensure that cell viability was above 90%. The cell concentration was adjusted to the desired final density, and 90 μL of cell suspension was added to a 96-well plate, then the cells were incubated overnight at 37° C., 5% CO2 and 95% humidity.
(§3) 10 μL PBS was added to each well of the TO plate containing cells. The CTG reagent was thawed and the plate was equilibrated to room temperature for 30 minutes. The CTG solution of 50 µL/well was added to each well. The cells were lysed by shaking on an orbital shaker for 5 minutes. The plate was left at room temperature for 20 minutes to stabilize the luminescence signal. The TO fluorescence signal value was read.
(§4) From the 10 mM stock solution, with a ratio of 1:5, 9-point serial dilutions were performed. The 10× medium containing the compound was transferred into corresponding wells of the 96 wells. The final maximum compound concentration was […] and the final DMSO concentration was 0.1%. The 96-well plate was placed in a 37° C. incubator and incubated for 4 days.
(§5) 50 μL/well of detection reagent (CTG) was added to the cells, and the signal was read in an Envision machine.
(§6) The percent inhibition (%) at each compound concentration was calculated from the signal in the HPE and ZPE control wells and the fluorescence signal in the individual compound wells included in each assay plate. […] The compound concentration required for inhibitory concentration at 50% (IC50) was determined using a four-parameter logarithmic dose-response equation by testing the concentration of the compound and the inhibition percentage value. The endpoint value (IC50) of the reference compound was assessed in each experiment as a quality control measure. If the endpoint value is within three times the expected value, the experiment may be considered acceptable.

[4] = test system: LS513; assay: Anti-proliferative 2D CTG assay, LS513; type: cell-based; details: Homo sapiens, LS-513, 96 h, LS513 cells, 4 days incubation, read-out: LS513 cell IC50
Procedure: as §1, §2, §3, §4, §5, §6

[5] = test system: AGS; assay: Anti-proliferative 2D CTG assay, AGS; type: cell-based; details: Homo sapiens, AGS, 96 h, AGS cells, 4 days incubation, read-out: AGS cell IC50
[6] = test system: AsPC-1; assay: Anti-proliferative 2D CTG assay, AsPC-1; type: cell-based; details: Homo sapiens, ASPC1, 96 h, AsPC-1 cells, 4 days incubation, read-out: AsPC-1 cell IC50
[7] = in vivo; details: male, ICR, mouse
Text: as §7, §8, §9, §10, §11

KRAS^G12D/cRAF, sequence (P01116 1-188 isoform P01116-2 G12D): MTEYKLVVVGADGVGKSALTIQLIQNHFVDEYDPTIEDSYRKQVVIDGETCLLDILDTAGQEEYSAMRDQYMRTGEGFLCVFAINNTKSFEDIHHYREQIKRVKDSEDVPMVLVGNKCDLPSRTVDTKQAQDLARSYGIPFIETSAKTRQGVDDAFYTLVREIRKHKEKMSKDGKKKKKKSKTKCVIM

SMILES | AUC ([1]; iv, 2 mg/kg) | Cmax ([1]; iv, 2 mg/kg) | half-life ([1]; iv, 2 mg/kg) | AUC ([1]; po, 10 mg/kg) | Cmax ([1]; po, 10 mg/kg) | bioavailability ([1]; po, 10 mg/kg) | half-life ([1]; po, 10 mg/kg) | IC50 [2] | IC50 [3] | IC50 [4] | IC50 [5] | IC50 [6] | AUC ([7]; iv, 2 mg/kg) | Cmax ([7]; iv, 2 mg/kg) | half-life ([7]; iv, 2 mg/kg) | AUC ([7]; po, 10 mg/kg) | Cmax ([7]; po, 10 mg/kg) | bioavailability ([7]; po, 10 mg/kg) | half-life ([7]; po, 10 mg/kg)
C#Cc1c(F)ccc2cc(O)cc(-c3ncc4c(N5C[C@@H]6CC[C@](C7CC7)(C5)N6)nc(OC[C@@]56CCCN5C/C(=C\F)C6)nc4c3F)c12 [Example 68, 4-(4-(1-cyclopropyl-3,8-diazabicyclo[3.2.1]octan-3-yl)-8-fluoro-2-(((S,Z)-2-(fluoromethylene)tetrahydro-1H-pyrrolizin-7a (5H)-yl)methoxy)pyrido[4,3-d]pyrimidin-7-yl)-5-ethynyl-6-fluoronaphthalen-2-ol] | 813 ng·h/mL | 887 ng/mL | 6.3 h | 1070 ng·h/mL | 300 ng/mL | 26.4% | 5.6 h | 40.1 nM | 83.2 nM | 59.8 nM | 33.4 nM | 190 nM |  |  |  |  |  |  | 
C#Cc1c(F)ccc2cc(N)cc(-c3ncc4c(N5C[C@H]6CC[C@@H](C5)N6)nc(OC[C@@]56CCCN5C/C(=C\F)C6)nc4c3F)c12 [Reference Compound 4, 4-(4-((1R,5S)-3,8-diazabicyclo [3.2.1]octan-3-yl)-8-fluoro-2-(((S,Z)-2-(fluoromethylene)tetrahydro-1H-pyrrolizin-7a(5H)-yl)methoxy)pyrido[4,3-d]pyrimidin-7-yl)-5-ethynyl-6-fluoronaphthalen-2-amine] |  |  |  |  |  |  |  |  |  |  |  |  | 163 ng·h/mL | 104 ng/mL | 8.4 h | 52.8 ng·h/mL | 14.8 ng/mL | 6.5% | 4.6 h
